The text below walks through data of patent US5770382A, “Tricyclic retinoids, methods for their production and use” (Ligand Pharmaceuticals, Inc., priority 1995, dated 1998).

Molecules are shown by their SMILES.

Common to all, as to format: cell-based
In one assay the test system is RXRs. The assay can be described thus: Co-transfection assay, summary for the RXRs. Here is the method:
Utilizing the "cis-trans" or "co-transfection" assay described by Evans et al., Science, 240:889-95 (May 13, 1988), the disclosure of which is herein incorporated by reference, the retinoid compounds of the present invention were tested and found to have strong, specific activity as either selective RAR agonists, selective RXR agonists, or as pan-agonist activators of both RAR and RXR receptors. This assay is described in further detail in U.S. Pat. Nos. 4,981,784 and 5,071,773, the disclosures of which are incorporated herein by reference.
The co-transfection assay provides a method for identifying functional agonists which mimic, or antagonists which inhibit, the effect of native hormones, and quantifying their activity for responsive IR proteins. In this regard, the co-transfection assay mimics an in vivo system in the laboratory. Importantly, activity in the co-transfection assay correlates very well with known in vivo activity, such that the co-transfection assay functions as a qualitative and quantitative predictor of a tested compounds Ln vivo pharmacology. See, e.g., T. Berger et al. 41 J. Steroid Biochem. Molec. […]
The co-transfection assay can detect small molecule agonists or antagonists of target IRs. […] This activity can be conveniently measured, e.g., by increasing luciferase production, which reflects compound-dependent, IR-mediated increases in reporter transcription. […]

The target in a further assay is T1, RXRγ (Mus musculus, UniProt P28705).
T1 construct: expressed in transfected cells; host or cells: CV-1 (African green monkey kidney fibroblasts)
T1 sequence (P28705 1-463): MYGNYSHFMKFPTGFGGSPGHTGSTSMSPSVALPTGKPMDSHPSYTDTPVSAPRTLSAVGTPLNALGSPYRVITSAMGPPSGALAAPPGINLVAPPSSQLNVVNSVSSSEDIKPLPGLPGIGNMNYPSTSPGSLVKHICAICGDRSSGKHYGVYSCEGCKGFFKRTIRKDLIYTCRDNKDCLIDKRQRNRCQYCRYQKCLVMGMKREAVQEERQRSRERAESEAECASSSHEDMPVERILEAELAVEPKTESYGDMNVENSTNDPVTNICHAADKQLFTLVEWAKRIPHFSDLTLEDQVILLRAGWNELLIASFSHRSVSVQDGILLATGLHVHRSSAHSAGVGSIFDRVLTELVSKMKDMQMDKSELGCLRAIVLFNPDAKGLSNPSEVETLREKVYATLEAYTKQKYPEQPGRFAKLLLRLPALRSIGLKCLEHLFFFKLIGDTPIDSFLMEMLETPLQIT
Briefly: Co-transfection assay, RXRγ agonist activity. As to conditions: CV-1 cells, 40 hours; read-out: RXRγ Pot (potency, EC50).

In another assay the target is T2, RXRα (Homo sapiens, UniProt P19793).
T2 construct: expressed in transfected cells; host or cells: CV-1 (African green monkey kidney fibroblasts)
T2 sequence (P19793 1-462): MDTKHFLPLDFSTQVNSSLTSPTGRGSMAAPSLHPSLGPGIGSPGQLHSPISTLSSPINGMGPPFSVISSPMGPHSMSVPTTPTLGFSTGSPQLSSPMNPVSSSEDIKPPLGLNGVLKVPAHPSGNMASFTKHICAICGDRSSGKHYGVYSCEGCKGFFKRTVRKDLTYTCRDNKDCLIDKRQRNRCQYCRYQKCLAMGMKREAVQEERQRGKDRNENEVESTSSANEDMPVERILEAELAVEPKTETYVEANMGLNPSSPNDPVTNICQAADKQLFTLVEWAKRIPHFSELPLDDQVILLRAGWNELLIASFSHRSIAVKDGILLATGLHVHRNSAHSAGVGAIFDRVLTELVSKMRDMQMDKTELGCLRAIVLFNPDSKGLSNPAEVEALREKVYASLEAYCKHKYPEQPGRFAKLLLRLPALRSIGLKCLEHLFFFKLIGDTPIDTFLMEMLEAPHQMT
The assay can be described thus: Co-transfection assay, RXRα agonist activity. As to conditions: CV-1 cells, 40 hours; read-out: RXRα Pot (potency, EC50).

For a further assay, the target named is T3, RARβ (Homo sapiens, UniProt P10826).
T3 construct: expressed in transfected cells; host or cells: CV-1 (African green monkey kidney fibroblasts)
T3 sequence (P10826 1-448 isoform P10826-2): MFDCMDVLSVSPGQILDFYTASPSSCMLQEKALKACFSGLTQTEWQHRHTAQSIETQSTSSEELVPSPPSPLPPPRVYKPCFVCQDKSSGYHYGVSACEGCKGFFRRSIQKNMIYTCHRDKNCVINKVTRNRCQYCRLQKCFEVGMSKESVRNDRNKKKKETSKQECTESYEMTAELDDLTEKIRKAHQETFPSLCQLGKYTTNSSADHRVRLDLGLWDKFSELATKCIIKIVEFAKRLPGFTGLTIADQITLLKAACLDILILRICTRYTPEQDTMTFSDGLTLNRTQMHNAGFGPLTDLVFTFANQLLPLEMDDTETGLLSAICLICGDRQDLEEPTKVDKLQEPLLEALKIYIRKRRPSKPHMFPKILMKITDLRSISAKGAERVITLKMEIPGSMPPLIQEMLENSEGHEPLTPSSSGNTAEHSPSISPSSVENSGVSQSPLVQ
Briefly: Co-transfection assay, RARβ agonist activity. As to conditions: CV-1 cells, 40 hours; read-out: RARβ Pot (potency, EC50).

For `CC(/C=C/C=C1/CC(C)(C)Oc2cc3c(cc21)C(C)(C)CCC3(C)C)=C\C(=O)O` [Compound 104b, (2E,4E)-3-Methyl-6-(2,3,6,7,8,9-hexahydro-2,2,6,6,9,9-hexamethylbenzo[b]-chromen-4-ylidene)-hexa-2,4-dienoic acid], in the assay on RXRs, the “RXR activity / selectivity (in words)” value is “potent and selective RXR compound”. Besides, the EC50 on RXRγ came to 11 nM; at RXRα it was 18 nM; on RARβ, 61 nM.

As usually defined, the EC50 is the concentration giving half of the maximal effect.
